Experimental findings from patent publication US6013283A (priority 1997, dated 2000) are described below.

The series is described as follows: Water solubility (dissolution in water).

Method: Stability of this compound was determined by dissolving small amounts in water, pH 7.8 phosphate buffer and methanol.
The stability of the product is determined by dissolving in deionized water and pH 7.26 phosphate buffer.

Take `Nc1c2c(nc3ccccc13)CCCC2` [Tacrine, tacrine]: the “WATER SOLUBILITY (in words)” value is listed as “Insoluble”.
